# Experimental data from patent publication US10479752B2, “Deuterated tetramethyl dioic acids, compositions comprising them and uses thereof” (SYNDROMEX LTD., priority 2011, dated 2019).
# Legend:
# [1] = Chemical and isotopic stability as solutions in DMSO/phosphate buffered saline over 48 hours; details: for chemical purity (HPLC area percent) with respect to related substances: all samples through the study; for analyte recovered, yield: summary over the study; for disenrichment of the product (isotopic stability): throughout the time period of the study
# Protocol: A 1 mg/mL stock solution (˜55 mL) of deuterated compound in DMSO was prepared. A measured volume of stock (7.5 mL) was dispensed in to each of seven vials. To each vial was added a measured volume of PBS (aq) (3.0 mL), and each vial was agitated to mix. The vials were then placed in a thermostatically-controlled oven set to 37° C. At each time-point (0 h, 2 h, 4 h, 24 h, 48 h) a vial was drawn from the oven. To the vial was added MTBE (9.0 mL), and the mixture was stirred vigorously for 5 min. The layers were separated, and the MTBE layer was agitated with DI water (3.75 mL) for 1 min. The layers were separated. The MTBE layer was dried with MgSO4 for >1 h, and then filtered through a PTFE syringe filter into a tared vial. The solution was concentrated in vacuo to a solid residue, and the mass of the residue was calculated and recorded. To the residue a measured volume of MeOH was added to make (theoretically) a 2.5 mg/mL solution. In this case, 3.00 mL MeOH was added to each vial which theoretically contained 7.5 mg of compound. The content of each solution was measured by quantitative HPLC analysis (by comparison to a standard of known concentration). The MeOH solutions were then recovered, concentrated in vacuo to a solid, and then analyzed by GCMS to determine isotopic enrichment as the methyl ester derivatives.
# [2] = Comparative oral bioavailability / pharmacokinetic study, single intravenous and oral administration; type: in vivo; details: rat; for C0 / t1/2 / AUCinf / Cmax / tmax: Mean CV (%); for F (oral bioavailability): 50 mg/kg po vs 5 mg/kg iv, Mean (CV %)
# Protocol: The pharmacokinetic properties and the oral bioavailability were investigated for the following comparative compounds:
# The plasma concentrations of the test items were measured by LC/MS/MS method following single intravenous and oral administration at the doses of 5 mg/kg body weight and 50 mg/kg body weight, respectively. Following intravenous administration small inter-individual variability was observed. Following i.v administration, the highest plasma concentrations were measured at the first sampling time-point (5 minutes) followed by a biphasic continuous decrease. […] The peak concentrations, tmax and the apparent terminal elimination half-lives (t1/2) were the followings:
# The vehicle for oral administration was prepared in advance. Preparation: 1 g of carboxymethylcellulose sodium salt was dissolved in 100 ml of Humaqua. The vehicle was prepared at least 2 days prior to formulation of the test items. The vehicle was stored in a refrigerator when not in use.
# The required amount of test item was weighed on an analytical balance, transferred into a suitable vial. The test item was dissolved in the required volume of N,N-dimethylacetamide (40% of the final volume). Dissolution of the test item was facilitated by gentle mixing by vortex. The solution was diluted with the suitable volume of PEG400 (40% of the final volume) then Salsol A (20% of the final volume). The final concentration of the test item in the solution was 5 mg/ml. The formulations were prepared freshly on the day of administration.
# The required amount of test item was weighed on an analytical balance, transferred into a test tube and mixed with the suitable volume of 1% CMC to achieve the final concentration of 25 mg/ml. The suspension was sonicated twice in bath sonicator for 30 min at 40 C (each round), and left overnight at room temperature. On the following day, the suspension was sonicated again (bath sonicator, 30 min, 40° C.) and further homogenized in a glass/glass homogenizer trying to reaching an homogenous suspension. In spite of the above procedure the quality (homogeneity) of the suspension was not perfect. The suspension was stored at room temperature till administration.
# Species/Strain rat/Wistar (Crl:(WI)BR rats)
# Number of animals: 24 males (at least 32 for cannulation*)
# After the acclimatization period, rats were equipped with a jugular vein cannula under isoflurane anesthesia. The following day the animals were used for the study. In the morning the rats were checked for health status and blood sampling before assigning them into the experimental group.
# The terminal elimination phase was defined on the basis of the last 3-5 measured concentration except rat A4. […] The central volume of distribution (Vc: […]) was approximately equal to the total blood volume. The volume of distribution estimated for the steady state situation (Vss: 97.3-143 ml/kg) remained also small compared to the total extracellular fluid volume (˜300 ml/kg). The clearance was also very small for all experimental compound analogues. The smallest clearance was obtained for Compound 7: 23.2 ml/h/kg.
# [3] = DMSO/PBS solution, 37° C., 24 h
# [4] = DMSO/PBS solution, 37° C., 48 h
# [5] = Original Sample (before the stability study)
structure (smiles),measurement,setting,value
"[2H]C([2H])([2H])C(CCCCCCCCCCC(C([2H])([2H])[2H])(C([2H])([2H])[2H])C([2H])([2H])C(=O)O)(C([2H])([2H])[2H])C([2H])([2H])C(=O)O [Compound 1, 3,3,14,14-[D16]Tetramethyl-1,16-hexadecanedoic acid]",GC/MS IE (isotopic enrichment),"[1]; DMSO/PBS solution, 37° C., 0 h",98.3%
same,HPLC Area Percentage,"[1]; DMSO/PBS solution, 37° C., 0 h",98.1%
same,HPLC Assay,"[1]; DMSO/PBS solution, 37° C., 0 h",66.5%
same,GC/MS IE (isotopic enrichment),"[1]; DMSO/PBS solution, 37° C., 2 h",98.2%
same,HPLC Area Percentage,"[1]; DMSO/PBS solution, 37° C., 2 h",97.2%
same,HPLC Assay,"[1]; DMSO/PBS solution, 37° C., 2 h",64.5%
same,GC/MS IE (isotopic enrichment),"[1]; DMSO/PBS solution, 37° C., 4 h",98.2%
same,HPLC Area Percentage,"[1]; DMSO/PBS solution, 37° C., 4 h",97.8%
same,HPLC Assay,"[1]; DMSO/PBS solution, 37° C., 4 h",70.1%
same,GC/MS IE (isotopic enrichment),[1]; [3],98.3%
same,HPLC Area Percentage,[1]; [3],97.6%
same,HPLC Assay,[1]; [3],89.3%
same,GC/MS IE (isotopic enrichment),[1]; [4],98.3%
same,HPLC Area Percentage,[1]; [4],97.5%
same,HPLC Assay,[1]; [4],86.3%
same,chemical purity (HPLC area percent) with respect to related substances,"[1]; DMSO/PBS solution, 37° C.",around 97%
same,"analyte recovered, yield","[1]; DMSO/PBS solution, 37° C.",over 90%
same,disenrichment of the product (isotopic stability),"[1]; DMSO/PBS solution, 37° C.",No disenrichment
same,GC/MS IE (isotopic enrichment),[1]; [5],98.3%
same,HPLC Area Percentage,[1]; [5],100.0%
same,C0,[2]; 5 mg/kg iv dose,67.0 (8.8%) μg/ml
same,t1/2,[2]; 5 mg/kg iv dose,2.81 (28.5%) h
same,AUCinf,[2]; 5 mg/kg iv,137 (19.3%) h * μg/ml
same,Cmax,[2]; 50 mg/kg po dose,114 (19.6%) μg/ml
same,t1/2,[2]; 50 mg/kg po dose,4.29 (15.7%) h
same,tmax,[2]; 50 mg/kg po dose,4 (0%) h
same,F (oral bioavailability),[2],91.0 (11.1) %
same,AUCinf,[2]; 50 mg/kg po,1246 (11.1%) h * μg/ml
same,tmax of the individual treated rats,"[2]; oral administration 50 mg/kg, post-dose",4 h
"CC(C)(CCCCCCCCCCC(C)(C)CC(=O)O)CC(=O)O [Compound 1″, reference compound]",C0,[2]; 5 mg/kg iv dose,56.1 (6.2%) μg/ml
same,t1/2,[2]; 5 mg/kg iv dose,2.68 (6.0%) h
same,AUCinf,[2]; 5 mg/kg iv,124 (23.6%) h * μg/ml
same,Cmax,[2]; 50 mg/kg po dose,103 (24.2%) μg/ml
same,t1/2,[2]; 50 mg/kg po dose,2.43 (57.6%) h
same,tmax,[2]; 50 mg/kg po dose,3.5 (79.5%) h
same,F (oral bioavailability),[2],69.6 (29.4) %
same,AUCinf,[2]; 50 mg/kg po,863 (29.4%) h * μg/ml
"CC(C)(CCCCCCCCCCCCC(C)(C)C(=O)O)C(=O)O [Compound 7″, reference compound]",C0,[2]; 5 mg/kg iv dose,74.6 (6.9%) μg/ml
same,t1/2,[2]; 5 mg/kg iv dose,2.18 (19.1%) h
same,AUCinf,[2]; 5 mg/kg iv,128 (13.4%) h * μg/ml
same,Cmax,[2]; 50 mg/kg po dose,143 (41.3%) μg/ml
same,t1/2,[2]; 50 mg/kg po dose,2.22 (9.9%) h
same,tmax,[2]; 50 mg/kg po dose,8 (50.0%) h
same,F (oral bioavailability),[2],124 (28.3) %
same,AUCinf,[2]; 50 mg/kg po,1586 (28.3%) h * μg/ml
"[2H]C([2H])([2H])C(CCCCCCCCCCC(CC(=O)O)(C([2H])([2H])[2H])C([2H])([2H])[2H])(CC(=O)O)C([2H])([2H])[2H] [Compound 3, 3,3,14,14-[D12]Tetramethyl-1,16-hexadecanedoic acid]",GC/MS IE (isotopic enrichment),"[1]; DMSO/PBS solution, 37° C., 0 h",99.9%
same,HPLC Area Percentage,"[1]; DMSO/PBS solution, 37° C., 0 h",98.0%
same,HPLC Assay,"[1]; DMSO/PBS solution, 37° C., 0 h",33.3%
same,GC/MS IE (isotopic enrichment),"[1]; DMSO/PBS solution, 37° C., 2 h",99.9%
same,HPLC Area Percentage,"[1]; DMSO/PBS solution, 37° C., 2 h",98.8%
same,HPLC Assay,"[1]; DMSO/PBS solution, 37° C., 2 h",38.4%
same,GC/MS IE (isotopic enrichment),"[1]; DMSO/PBS solution, 37° C., 4 h",99.9%
same,HPLC Area Percentage,"[1]; DMSO/PBS solution, 37° C., 4 h",98.4%
same,HPLC Assay,"[1]; DMSO/PBS solution, 37° C., 4 h",32.4%
same,GC/MS IE (isotopic enrichment),[1]; [3],99.9%
same,HPLC Area Percentage,[1]; [3],98.6%
same,HPLC Assay,[1]; [3],46.0%
same,GC/MS IE (isotopic enrichment),[1]; [4],99.9%
same,HPLC Area Percentage,[1]; [4],98.5%
same,HPLC Assay,[1]; [4],50.2%
same,"analyte recovered, yield","[1]; DMSO/PBS solution, 37° C.",about 95%
same,disenrichment of the product (isotopic stability),"[1]; DMSO/PBS solution, 37° C.",No disenrichment
same,HPLC Area Percentage,[1]; [5],100.0%
"[2H]C([2H])([2H])C(CCCCCCCCCCCCC(C([2H])([2H])[2H])(C([2H])([2H])[2H])C([2H])([2H])C(=O)O)(C([2H])([2H])[2H])C([2H])([2H])C(=O)O [Compound 4, 3,3,16,16-[D16]Tetramethyl-1,18-octadecanedioic acid]",GC/MS IE (isotopic enrichment),"[1]; DMSO/PBS solution, 37° C., 0 h",98.6%
same,HPLC Area Percentage,"[1]; DMSO/PBS solution, 37° C., 0 h",97.2%
same,HPLC Assay,"[1]; DMSO/PBS solution, 37° C., 0 h",70.9%
same,GC/MS IE (isotopic enrichment),"[1]; DMSO/PBS solution, 37° C., 2 h",98.4%
same,HPLC Area Percentage,"[1]; DMSO/PBS solution, 37° C., 2 h",97.8%
same,HPLC Assay,"[1]; DMSO/PBS solution, 37° C., 2 h",65.9%
same,GC/MS IE (isotopic enrichment),"[1]; DMSO/PBS solution, 37° C., 4 h",98.4%
same,HPLC Area Percentage,"[1]; DMSO/PBS solution, 37° C., 4 h",97.5%
same,HPLC Assay,"[1]; DMSO/PBS solution, 37° C., 4 h",53.8%
same,GC/MS IE (isotopic enrichment),[1]; [3],98.4%
same,HPLC Area Percentage,[1]; [3],96.5%
same,HPLC Assay,[1]; [3],93.8%
same,GC/MS IE (isotopic enrichment),[1]; [4],98.3%
same,HPLC Area Percentage,[1]; [4],97.5%
same,HPLC Assay,[1]; [4],77.6%
same,"stability results overall, in words","[1]; DMSO/PBS solution, 37° C., 48 h study",essentially the same as those for Compound 1
same,GC/MS IE (isotopic enrichment),[1]; [5],98.3%
same,HPLC Area Percentage,[1]; [5],99.2%
"[2H]C([2H])([2H])C(CCCCCCCCCCCCCCC(C(=O)O)(C([2H])([2H])[2H])C([2H])([2H])[2H])(C(=O)O)C([2H])([2H])[2H] [Compound 8, 2,2,17,17-Tetramethyl(D12)-octadecanedioic acid]",GC/MS IE (isotopic enrichment),"[1]; DMSO/PBS solution, 37° C., 0 h",99.9%
same,HPLC Area Percentage,"[1]; DMSO/PBS solution, 37° C., 0 h",95.1%
same,HPLC Assay,"[1]; DMSO/PBS solution, 37° C., 0 h",60.0%
same,GC/MS IE (isotopic enrichment),"[1]; DMSO/PBS solution, 37° C., 2 h",99.9%
same,HPLC Area Percentage,"[1]; DMSO/PBS solution, 37° C., 2 h",94.3%
same,HPLC Assay,"[1]; DMSO/PBS solution, 37° C., 2 h",68.7%
same,GC/MS IE (isotopic enrichment),"[1]; DMSO/PBS solution, 37° C., 4 h",99.9%
same,HPLC Area Percentage,"[1]; DMSO/PBS solution, 37° C., 4 h",94.1%
same,HPLC Assay,"[1]; DMSO/PBS solution, 37° C., 4 h",56.9%
same,GC/MS IE (isotopic enrichment),[1]; [3],99.9%
same,HPLC Area Percentage,[1]; [3],96.0%
same,HPLC Assay,[1]; [3],66.8%
same,GC/MS IE (isotopic enrichment),[1]; [4],99.9%
same,HPLC Area Percentage,[1]; [4],97.2%
same,HPLC Assay,[1]; [4],47.7%
same,chemical purity (HPLC area percent) with respect to related substances,"[1]; DMSO/PBS solution, 37° C.",around 95%
same,"analyte recovered, yield","[1]; DMSO/PBS solution, 37° C.",about 85%
same,disenrichment of the product (isotopic stability),"[1]; DMSO/PBS solution, 37° C.",No disenrichment
same,GC/MS IE (isotopic enrichment),[1]; [5],99.9%
same,HPLC Area Percentage,[1]; [5],100.0%
